Measurements from US20210261553A1, “FUSED TETRAZOLES AS LRRK2 INHIBITORS” (E-SCAPE Bio, Inc., priority 2018, published 2021).

Columns and labels:
[1] = target: T1, Recombinant wild type LRRK2 protein (Homo sapiens, UniProt Q5S007); test: LRRK2 kinase activity assay (LanthaScreen TR-FRET), wild type; format: biochemical; conditions: 400 nM LRRKtide, 25 μM ATP, 60 min at room temperature; read-out: LRRK2 WT IC50
T1 construct: purchased Life Technologies PR8604B
Method: (§1) LRRK2 kinase activity was measured using a LanthaScreen™ Kinase Activity Assay from ThermoFisher Scientific. Recombinant wild type or G2019S-LRRK2 protein (Life Technologies, PR8604B or PV4881, respectively), was incubated with a fluorescein-labeled peptide substrate called LRRKtide that is based upon ezrin/radixin/moesin (ERM) (Life Technologies, PV4901) in the presence of ATP and serially diluted compound. After an incubation period of 1 hr, the phosphotransferase activity was stopped and a terbium-labelled anti-pERM antibody (Life Technologies, PV4899) was added to detect the phosphorylation of LRRKtide by measuring the time resolved-Forster resonant energy transfer (TR-FRET) signal from the terbium label on the antibody to the fluorescein tag on LRRKtide, expressed as the 520 nm/495 nm emission ratio. Compound-dependent inhibition of the TR-FRET signal was used to generate a concentration-response curve for IC50 determination.
(§2) The assay was carried out under the following protocol conditions: 1 mM compound in DMSO was serially diluted 1:3, 11 points in DMSO with a Biomek FX and 0.1 μL of the diluted compound was subsequently stamped into the assay plate (384-well format Lumitrac 200, Greiner, 781075) with an Echo Labcyte such that the final compound concentration in the assay was 10 μM to […]. Subsequently, 5 μL of 2× kinase solution (2.9 nM final concentration) was added to the assay plate in assay buffer composed of 50 mM Tris pH 8.5 (Sigma, T6791), 5 mM MgCl2 (Fluka, 63020), 1 mM EGTA (Sigma, E3889), 0.01% BRU-35 (Sigma, P1254) and 2 mM DTT. The reaction was started by addition of 2×ATP/LRRKtide solution in assay buffer such that the final concentration was 400 nM LRRKtide and 25 μM ATP. After 60 min incubation at room temperature, the reaction was stopped by addition of […] containing a final concentration of 2 nM anti-pERM antibody and […]. After a 30 min incubation at RT, the TR-FRET signal was measured on a Wallac 2104 EnVision® multilabel reader at an excitation wavelength of 340 nm and reading emission at 520 nm and 495 nm. The ratio of the 520 nm and 495 nm emission was used to analyze the data.

[2] = target: T2, Recombinant G2019S-LRRK2 protein (Homo sapiens, UniProt Q5S007, G2019S); test: LRRK2 kinase activity assay (LanthaScreen TR-FRET), G2019S mutant; format: biochemical; conditions: 400 nM LRRKtide, 25 μM ATP, 60 min at room temperature
T2 construct: purchased Life Technologies PV4881
T2 sequence (Q5S007 970-2527 G2019S limits assumed): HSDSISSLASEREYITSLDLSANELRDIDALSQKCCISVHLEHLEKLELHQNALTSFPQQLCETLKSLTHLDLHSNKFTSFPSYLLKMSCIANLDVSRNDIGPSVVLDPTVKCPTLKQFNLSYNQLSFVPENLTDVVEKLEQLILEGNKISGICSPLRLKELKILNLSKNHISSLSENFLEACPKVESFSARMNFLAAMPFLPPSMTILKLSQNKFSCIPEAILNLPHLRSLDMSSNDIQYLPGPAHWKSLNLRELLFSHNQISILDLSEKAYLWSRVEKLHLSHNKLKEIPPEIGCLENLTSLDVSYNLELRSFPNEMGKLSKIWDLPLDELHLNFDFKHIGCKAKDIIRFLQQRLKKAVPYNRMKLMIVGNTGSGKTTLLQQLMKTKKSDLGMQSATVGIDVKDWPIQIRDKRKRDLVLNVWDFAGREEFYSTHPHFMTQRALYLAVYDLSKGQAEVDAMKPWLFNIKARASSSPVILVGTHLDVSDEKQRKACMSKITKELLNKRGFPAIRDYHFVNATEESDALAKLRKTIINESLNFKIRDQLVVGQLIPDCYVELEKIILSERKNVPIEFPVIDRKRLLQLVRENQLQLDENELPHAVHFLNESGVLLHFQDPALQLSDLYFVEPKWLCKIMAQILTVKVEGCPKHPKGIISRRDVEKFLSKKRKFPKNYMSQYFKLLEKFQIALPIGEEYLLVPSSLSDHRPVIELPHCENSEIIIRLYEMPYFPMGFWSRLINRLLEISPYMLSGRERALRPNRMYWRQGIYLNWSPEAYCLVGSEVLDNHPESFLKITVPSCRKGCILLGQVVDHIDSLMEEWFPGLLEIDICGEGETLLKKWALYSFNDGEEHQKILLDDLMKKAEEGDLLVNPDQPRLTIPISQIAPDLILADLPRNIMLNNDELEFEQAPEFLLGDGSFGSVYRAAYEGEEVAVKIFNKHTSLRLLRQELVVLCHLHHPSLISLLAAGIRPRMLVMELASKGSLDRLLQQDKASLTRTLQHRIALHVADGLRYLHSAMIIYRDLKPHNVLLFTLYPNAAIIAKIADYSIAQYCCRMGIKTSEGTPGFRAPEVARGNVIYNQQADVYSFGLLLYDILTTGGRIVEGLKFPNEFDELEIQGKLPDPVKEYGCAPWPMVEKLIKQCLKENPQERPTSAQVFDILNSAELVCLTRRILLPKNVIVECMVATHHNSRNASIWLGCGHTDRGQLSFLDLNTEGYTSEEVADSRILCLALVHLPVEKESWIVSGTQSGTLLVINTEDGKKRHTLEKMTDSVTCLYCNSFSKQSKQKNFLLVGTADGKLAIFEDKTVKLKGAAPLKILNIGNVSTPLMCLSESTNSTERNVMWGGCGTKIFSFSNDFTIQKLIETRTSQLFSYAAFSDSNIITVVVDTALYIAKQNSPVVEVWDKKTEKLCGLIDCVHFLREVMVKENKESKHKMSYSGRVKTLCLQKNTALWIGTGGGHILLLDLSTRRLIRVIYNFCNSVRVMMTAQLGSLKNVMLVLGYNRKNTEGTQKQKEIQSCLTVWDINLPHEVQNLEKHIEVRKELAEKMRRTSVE
Method: as §1, §2

T1 sequence (Q5S007 whole entry): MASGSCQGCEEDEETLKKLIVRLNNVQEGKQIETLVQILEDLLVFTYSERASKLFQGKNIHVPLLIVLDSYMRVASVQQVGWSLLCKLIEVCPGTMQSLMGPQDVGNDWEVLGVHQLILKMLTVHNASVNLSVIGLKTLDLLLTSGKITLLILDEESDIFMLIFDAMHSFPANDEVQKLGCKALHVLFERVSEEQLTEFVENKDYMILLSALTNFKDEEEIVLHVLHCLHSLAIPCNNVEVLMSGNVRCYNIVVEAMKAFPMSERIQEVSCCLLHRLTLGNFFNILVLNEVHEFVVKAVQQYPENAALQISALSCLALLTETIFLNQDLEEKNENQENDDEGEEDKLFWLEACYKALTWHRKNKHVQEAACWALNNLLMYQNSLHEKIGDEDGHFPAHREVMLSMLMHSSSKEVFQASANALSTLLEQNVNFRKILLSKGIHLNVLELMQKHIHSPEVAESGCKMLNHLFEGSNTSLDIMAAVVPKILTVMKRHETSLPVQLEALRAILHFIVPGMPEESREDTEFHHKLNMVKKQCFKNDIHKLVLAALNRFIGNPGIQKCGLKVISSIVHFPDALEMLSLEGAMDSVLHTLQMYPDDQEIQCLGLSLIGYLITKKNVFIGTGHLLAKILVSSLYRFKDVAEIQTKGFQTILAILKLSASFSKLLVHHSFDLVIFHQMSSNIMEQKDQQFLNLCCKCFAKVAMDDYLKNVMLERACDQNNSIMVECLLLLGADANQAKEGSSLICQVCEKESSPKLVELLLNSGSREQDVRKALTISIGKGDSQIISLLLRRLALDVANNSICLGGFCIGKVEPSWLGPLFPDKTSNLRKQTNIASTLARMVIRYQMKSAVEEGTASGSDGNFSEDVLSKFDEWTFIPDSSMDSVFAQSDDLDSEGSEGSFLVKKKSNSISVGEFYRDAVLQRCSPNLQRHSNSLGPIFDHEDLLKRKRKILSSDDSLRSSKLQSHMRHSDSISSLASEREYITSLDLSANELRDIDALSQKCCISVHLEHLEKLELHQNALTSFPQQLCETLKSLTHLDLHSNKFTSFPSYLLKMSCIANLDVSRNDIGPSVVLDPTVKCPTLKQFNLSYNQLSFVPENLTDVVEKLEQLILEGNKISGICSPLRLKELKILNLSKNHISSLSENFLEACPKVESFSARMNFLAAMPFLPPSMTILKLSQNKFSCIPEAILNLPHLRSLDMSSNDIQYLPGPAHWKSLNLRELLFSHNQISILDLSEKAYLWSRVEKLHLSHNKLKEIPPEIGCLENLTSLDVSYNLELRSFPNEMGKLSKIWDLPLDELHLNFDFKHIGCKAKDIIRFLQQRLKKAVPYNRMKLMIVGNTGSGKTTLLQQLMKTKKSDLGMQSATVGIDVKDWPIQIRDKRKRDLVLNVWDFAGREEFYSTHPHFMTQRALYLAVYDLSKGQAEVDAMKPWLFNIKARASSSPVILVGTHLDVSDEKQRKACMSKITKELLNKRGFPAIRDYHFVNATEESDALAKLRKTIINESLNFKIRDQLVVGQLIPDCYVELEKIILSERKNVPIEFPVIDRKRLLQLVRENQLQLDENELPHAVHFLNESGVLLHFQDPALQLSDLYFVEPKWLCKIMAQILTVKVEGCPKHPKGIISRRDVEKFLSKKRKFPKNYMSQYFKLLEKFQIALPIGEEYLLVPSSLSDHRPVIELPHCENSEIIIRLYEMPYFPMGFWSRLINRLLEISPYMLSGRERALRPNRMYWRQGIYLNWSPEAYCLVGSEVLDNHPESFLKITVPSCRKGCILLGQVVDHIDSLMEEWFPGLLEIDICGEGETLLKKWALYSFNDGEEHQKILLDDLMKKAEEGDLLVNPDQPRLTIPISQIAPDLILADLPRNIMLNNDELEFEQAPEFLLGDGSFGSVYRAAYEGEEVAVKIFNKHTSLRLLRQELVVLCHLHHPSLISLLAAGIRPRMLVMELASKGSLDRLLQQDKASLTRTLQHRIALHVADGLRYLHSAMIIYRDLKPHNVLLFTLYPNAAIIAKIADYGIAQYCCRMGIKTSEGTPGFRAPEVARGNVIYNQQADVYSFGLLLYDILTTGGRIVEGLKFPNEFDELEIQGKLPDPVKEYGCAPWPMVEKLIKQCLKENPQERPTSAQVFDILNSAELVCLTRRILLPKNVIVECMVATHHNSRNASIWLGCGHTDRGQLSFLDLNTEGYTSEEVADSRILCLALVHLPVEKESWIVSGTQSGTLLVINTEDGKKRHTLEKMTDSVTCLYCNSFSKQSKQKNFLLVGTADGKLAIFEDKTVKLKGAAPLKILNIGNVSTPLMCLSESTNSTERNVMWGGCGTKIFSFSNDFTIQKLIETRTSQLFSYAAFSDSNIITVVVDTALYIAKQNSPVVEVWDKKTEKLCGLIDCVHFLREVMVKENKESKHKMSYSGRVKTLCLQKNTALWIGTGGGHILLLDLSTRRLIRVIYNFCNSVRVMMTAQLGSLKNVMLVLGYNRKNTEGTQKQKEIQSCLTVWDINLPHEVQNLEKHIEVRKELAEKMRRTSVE

IC50 [1] [µM] | IC50 [2] [µM] | SMILES
1 to 10 | 0.1 to 1 | CC1=C(C(=O)Nc2ccc3[nH]ncc3c2F)Cn2nnnc2N1C [Example 14, N-(4-fluoro-1H-indazol-5-yl)-4,5-dimethyl-4,7-dihydrotetrazolo[1,5-a]pyrimidine-6-carboxamide]
≤ 0.1 | ≤ 0.1 | CC1=C(C(=O)Nc2ccc3[nH]ncc3c2)Cn2nnnc2N1c1ccccc1 [Example 13, N-(1H-indazol-5-yl)-5-methyl-4-phenyl-4,7-dihydrotetrazolo[1,5-a]pyrimidine-6-carboxamide]
1 to 10 | 1 to 10 | CC1=C(C(=O)Nc2cc3c[nH]nc3cc2C(N)=O)Cn2nnnc2N1C [Example 20, N-(6-carbamoyl-2H-indazol-5-yl)-4,5-dimethyl-4,7-dihydrotetrazolo[1,5-a]pyrimidine-6-carboxamide]
0.1 to 1 | ≤ 0.1 | CCC1C(C(=O)Nc2ccc3[nH]ncc3c2)=C(C)N(C)c2nnnn21 (racemic) [Example 8, 7-Ethyl-N-(1H-indazol-5-yl)-4,5-dimethyl-4H,7H-[1,2,3,4]tetrazolo[1,5-a]pyrimidine-6-carboxamide]
0.1 to 1 | ≤ 0.1 | CC1=C(C(=O)Nc2ccc3[nH]ncc3c2)C(C)n2nnnc2N1C (centres unmarked) [Example 2, N-(1H-indazol-5-yl)-4,5,7-trimethyl-4H,7H-[1,2,3,4]tetrazolo[1,5-a]pyrimidine-6-carboxamide]
> 10 | 1 to 10 | COc1cc2n[nH]cc2cc1NC(=O)C1=C(C)N(C)c2nnnn2C1 [Example 17, N-(6-methoxy-2H-indazol-5-yl)-4,5-dimethyl-4,7-dihydrotetrazolo[1,5-a]pyrimidine-6-carboxamide]
0.1 to 1 | ≤ 0.1 | CC1=C(C(=O)Nc2ccc3[nH]nc(C(N)=O)c3c2)Cn2nnnc2N1C [Example 18, N-(3-carbamoyl-2H-indazol-5-yl)-4,5-dimethyl-4,7-dihydrotetrazolo[1,5-a]pyrimidine-6-carboxamide]
≤ 0.1 | ≤ 0.1 | CC1=C(C(=O)Nc2ccc3[nH]nc(-c4cc(N5CCOCC5)ncn4)c3c2)Cn2nnnc2N1C [Example 9, 4,5-Dimethyl-N-(3-(6-morpholinopyrimidin-4-yl)-1H-indazol-5-yl)-4,7-dihydrotetrazolo[1,5-a]pyrimidine-6-carboxamide]
> 10 | 1 to 10 | CC(=O)Nc1[nH]nc2ccc(NC(=O)C3=C(C)N(C)c4nnnn4C3)cc12 [Example 28, N-(3-acetamido-2H-indazol-5-yl)-4,5-dimethyl-4,7-dihydrotetrazolo[1,5-a]pyrimidine-6-carboxamide]
1 to 10 | 0.1 to 1 | CC1=C(C(=O)Nc2ccc3n[nH]c(NC(=O)Cc4ccc(N(C)C)cc4)c3c2)Cn2nnnc2N1C [Example 52, N-(3-(2-(4-(Dimethylamino)phenyl)acetamido)-2H-indazol-5-yl)-4,5-dimethyl-4,7-dihydrotetrazolo[1,5-a]pyrimidine-6-carboxamide]
≤ 0.1 | ≤ 0.1 | CC1=C(C(=O)Nc2ccc3[nH]nc(-c4ccnc(N5CCOCC5)c4)c3c2)[C@H](C)n2nnnc2N1C (single isomer, unassigned) [Example 24b]
≤ 0.1 | ≤ 0.1 | CC1=C(C(=O)Nc2ccc3[nH]nc(Br)c3c2)Cn2nnnc2N1C [Example 10, N-(3-Bromo-1H-indazol-5-yl)-4,5-dimethyl-4,7-dihydrotetrazolo[1,5-a]pyrimidine-6-carboxamide]
> 10 | > 10 | CC1=C(C(=O)Nc2ccc3c(c2)C(C)(C)NC3=O)[C@@H](C)n2nnnc2N1C [Example 49, (R)—N-(3,3-Dimethyl-1-oxoisoindolin-5-yl)-4,5,7-trimethyl-4,7-dihydrotetrazolo[1,5-a]pyrimidine-6-carboxamide]
1 to 10 | 0.1 to 1 | CC1=C(C(=O)Nc2cnc3n[nH]cc3c2)C(C)n2nnnc2N1C (centres unmarked) [Example 16, 4,5,7-trimethyl-N-(2H-pyrazolo[3,4-b]pyridin-5-yl)-4,7-dihydrotetrazolo[1,5-a]pyrimidine-6-carboxamide]
0.1 to 1 | ≤ 0.1 | CC1=C(C(=O)Nc2ccc3[nH]ncc3c2)Cn2nnnc2N1C(=O)N(C)C [Example 12, N^6-(1H-indazol-5-yl)-N^4,N^4,5-trimethyltetrazolo[1,5-a]pyrimidine-4,6(7H)-dicarboxamide]
1 to 10 | 0.1 to 1 | CC1=C(C(=O)Nc2ccc3[nH]c(=O)[nH]c3c2)Cn2nnnc2N1C [Example 31, 4,5-dimethyl-N-(2-oxo-2,3-dihydro-1H-benzo[d]imidazol-5-yl)-4,7-dihydrotetrazolo[1,5-a]pyrimidine-6-carboxamide]
1 to 10 | ≤ 0.1 | CC1=C(C(=O)Nc2ccc3[nH]ncc3c2)C(C)(C)n2nnnc2N1C [Example 26, N-(2H-indazol-5-yl)-4,5,7,7-tetramethyl-4,7-dihydrotetrazolo[1,5-a]pyrimidine-6-carboxamide]
≤ 0.1 | ≤ 0.1 | CC1=C(C(=O)Nc2ccc3[nH]nc(-c4ccncc4)c3c2)[C@@H](C)n2nnnc2N1C [Example 27, (R)-4,5,7-trimethyl-N-(3-(pyridin-4-yl)-1H-indazol-5-yl)-4,7-dihydrotetrazolo[1,5-a]pyrimidine-6-carboxamide]
1 to 10 | 1 to 10 | CC1=C(C(=O)Nc2cc3c[nH]nc3cc2N)Cn2nnnc2N1C [Example 21, N-(6-amino-2H-indazol-5-yl)-4,5-dimethyl-4,7-dihydrotetrazolo[1,5-a]pyrimidine-6-carboxamide]
≤ 0.1 | ≤ 0.1 | CC1=C(C(=O)Nc2ccc3n[nH]c(Br)c3c2)[C@@H](C)n2nnnc2N1C [Example 22, (7R)—N-(3-bromo-2H-indazol-5-yl)-4,5,7-trimethyl-4,7-dihydrotetrazolo[1,5-a]pyrimidine-6-carboxamide]
≤ 0.1 | ≤ 0.1 | CC1=C(C(=O)Nc2ccc3[nH]nc(-c4ccncc4)c3c2)Cn2nnnc2N1C [Example 6, 4,5-dimethyl-N-(3-(pyridin-4-yl)-1H-indazol-5-yl)-4,7-dihydrotetrazolo[1,5-a]pyrimidine-6-carboxamide]
0.1 to 1 | 0.1 to 1 | CCC1=C(C(=O)Nc2ccc3[nH]ncc3c2)Cn2nnnc2N1C [Example 5, 5-Ethyl-N-(1H-indazol-5-yl)-4-methyl-4H,7H-[1,2,3,4]tetrazolo[1,5-a]pyrimidine-6-carboxamide]
0.1 to 1 | ≤ 0.1 | CCC1C(C(=O)Nc2ccc3[nH]ncc3c2)=C(C)N(C)c2nnnn21 (single isomer, unassigned) [Example 8b]
0.1 to 1 | ≤ 0.1 | CCC1C(C(=O)Nc2ccc3[nH]ncc3c2)=C(C)N(C)c2nnnn21 (single isomer, unassigned) [Example 8a]
1 to 10 | 1 to 10 | CC1=C(C(=O)Nc2ccc3[nH]ncc3c2)Cn2nnnc2N1CCN1CCOCC1 [Example 4, N-(1H-Indazol-5-yl)-5-methyl-4-[2-(morpholin-4-yl)ethyl]-4H,7H-[1,2,3,4]tetrazolo[1,5-a]pyrimidine-6-carboxamide]
≤ 0.1 | ≤ 0.1 | CC1=C(C(=O)Nc2ccc3[nH]nc(-c4ccnc(N5CCOCC5)c4)c3c2)[C@@H](C)n2nnnc2N1C (single isomer, unassigned) [Example 24a]
1 to 10 | 1 to 10 | CC1=C(C(=O)Nc2ccc3cn[nH]c3c2)Cn2nnnc2N1C [Example 3, N-(1H-indazol-6-yl)-4,5-dimethyl-4H,7H-[1,2,3,4]tetrazolo[1,5-a]pyrimidine-6-carboxamide]
1 to 10 | ≤ 0.1 | CC1=C(C(=O)Nc2ccc3[nH]c(=O)n(C)c3c2)[C@@H](C)n2nnnc2N1C [Example 47, (R)-4,5,7-Trimethyl-N-(3-methyl-2-oxo-2,3-dihydro-1H-benzo[d]imidazol-5-yl)-4,7-dihydrotetrazolo[1,5-a]pyrimidine-6-carboxamide]
0.1 to 1 | ≤ 0.1 | CC1=C(C(=O)Nc2ccc3[nH]ncc3c2)Cn2nnnc2N1C [Example 1, N-(1H-Indazol-5-yl)-4,5-dimethyl-4H,7H-[1,2,3,4]tetrazolo[1,5-a]pyrimidine-6-carboxamide]
 | 1 to 10 | CC1=C(C(=O)Nc2ccc3c(c2)CC(=O)N3)Cn2nnnc2N1C [Example 29, 4,5-dimethyl-N-(2-oxoindolin-5-yl)-4,7-dihydrotetrazolo[1,5-a]pyrimidine-6-carboxamide]
